Results reported in patent US10202361B2, “Pyridazinones as herbicides” (E I DU PONT DE NEMOURS AND COMPANY, priority 2014, dated 2019).

Tests used:
Assay in all cases: Test D pre-/postemergence controlled growth environment herbicide test
Assay type in all cases: in vivo
Conditions in all cases: scale 0 to 100
[1] = tested on: mustard, wild (wild mustard, Sinapis arvensis)
In short: (§1)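 Preemergence: seeds sown in silt loam soil and sprayed with test chemicals in a non-phytotoxic solvent mixture containing surfactant. Postemergence: plants grown in peat/vermiculite planting medium and sprayed at 2 to 18 cm (1- to 4-leaf stage). Visual rating versus controls after 14 to 21 d, 0 (no effect) to 100 (complete control).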

[2] = tested on: galium (catchweed bedstraw, Galium aparine)
In short: as §1

[3] = tested on: oilseed rape (Brassica napus)
In short: as §1

[4] = tested on: pigweed (Amaranthus retroflexus)
In short: as §1

[5] = tested on: buckwheat, wild (wild buckwheat, Polygonum convolvulus)
In short: as §1

[6] = tested on: barley, winter (winter barley, Hordeum vulgare)
In short: as §1

[7] = tested on: barley, spring (spring barley, Hordeum vulgare)
In short: as §1

[8] = tested on: wheat, winter (winter wheat, Triticum aestivum)
In short: as §1

[9] = tested on: ryegrass, Italian (Italian ryegrass, Lolium multiflorum)
In short: as §1

[10] = tested on: downy bromegrass (Bromus tectorum)
In short: as §1

kochia (Kochia scoparia) = tested on: kochia (Kochia scoparia)
In short: as §1

SMILES: Cc1cc(=O)n(-c2ccc(F)cc2)nc1Oc1ccnc(C(F)(F)F)c1 [Compound 14, 2-(4-fluorophenyl)-5-methyl-6-[[2-(trifluoromethyl)-4-pyridinyl]oxy]-3 (2H)-pyridazinone]
- Plant response rating ([1]; Postemergence, 16 g ai/ha): 65
- Plant response rating ([1]; Postemergence, 31 g ai/ha): 60
- Plant response rating ([1]; Postemergence, 62 g ai/ha): 65
- Plant response rating ([1]; Postemergence, 125 g ai/ha): 75
- Plant response rating ([1]; Postemergence, 250 g ai/ha): 95
- Plant response rating ([1]; Preemergence, 16 g ai/ha): 30
- Plant response rating ([1]; Preemergence, 31 g ai/ha): 35
- Plant response rating ([1]; Preemergence, 62 g ai/ha): 40
- Plant response rating ([1]; Preemergence, 125 g ai/ha): 100
- Plant response rating ([1]; Preemergence, 250 g ai/ha): 100
- Plant response rating ([2]; Postemergence, 16 g ai/ha): 60
- Plant response rating ([2]; Postemergence, 31 g ai/ha): 60
- Plant response rating ([2]; Postemergence, 62 g ai/ha): 60
- Plant response rating ([2]; Postemergence, 125 g ai/ha): 65
- Plant response rating ([2]; Postemergence, 250 g ai/ha): 75
- Plant response rating ([2]; Preemergence, 16 g ai/ha): 0
- Plant response rating ([2]; Preemergence, 31 g ai/ha): 0
- Plant response rating ([2]; Preemergence, 62 g ai/ha): 0
- Plant response rating ([2]; Preemergence, 125 g ai/ha): 5
- Plant response rating ([3]; Postemergence, 16 g ai/ha): 25
- Plant response rating ([3]; Postemergence, 31 g ai/ha): 50
- Plant response rating ([3]; Postemergence, 62 g ai/ha): 15
- Plant response rating ([3]; Postemergence, 125 g ai/ha): 45
- Plant response rating ([3]; Postemergence, 250 g ai/ha): 55
- Plant response rating ([3]; Preemergence, 16 g ai/ha): 0
- Plant response rating ([3]; Preemergence, 31 g ai/ha): 5
- Plant response rating ([3]; Preemergence, 62 g ai/ha): 10
- Plant response rating ([3]; Preemergence, 125 g ai/ha): 15
- Plant response rating ([3]; Preemergence, 250 g ai/ha): 70
- Plant response rating ([4]; Postemergence, 16 g ai/ha): 60
- Plant response rating ([4]; Postemergence, 31 g ai/ha): 60
- Plant response rating ([4]; Postemergence, 62 g ai/ha): 70
- Plant response rating ([4]; Postemergence, 125 g ai/ha): 75
- Plant response rating ([4]; Postemergence, 250 g ai/ha): 75
- Plant response rating ([4]; Preemergence, 16 g ai/ha): 35
- Plant response rating ([4]; Preemergence, 31 g ai/ha): 95
- Plant response rating ([4]; Preemergence, 62 g ai/ha): 75
- Plant response rating ([4]; Preemergence, 125 g ai/ha): 100
- Plant response rating ([4]; Preemergence, 250 g ai/ha): 100
- Plant response rating ([5]; Postemergence, 16 g ai/ha): 55
- Plant response rating ([5]; Postemergence, 31 g ai/ha): 55
- Plant response rating ([5]; Postemergence, 62 g ai/ha): 75
- Plant response rating ([5]; Postemergence, 125 g ai/ha): 70
- Plant response rating ([5]; Postemergence, 250 g ai/ha): 70
- Plant response rating ([5]; Preemergence, 16 g ai/ha): 15
- Plant response rating ([5]; Preemergence, 31 g ai/ha): 15
- Plant response rating ([5]; Preemergence, 62 g ai/ha): 25
- Plant response rating ([5]; Preemergence, 125 g ai/ha): 25
- Plant response rating ([5]; Preemergence, 250 g ai/ha): 100
- Plant response rating ([6]; Postemergence, 16 g ai/ha): 10
- Plant response rating ([6]; Postemergence, 31 g ai/ha): 15
- Plant response rating ([6]; Postemergence, 62 g ai/ha): 20
- Plant response rating ([6]; Postemergence, 125 g ai/ha): 20
- Plant response rating ([6]; Postemergence, 250 g ai/ha): 25
- Plant response rating ([6]; Preemergence, 16 g ai/ha): 15
- Plant response rating ([6]; Preemergence, 31 g ai/ha): 5
- Plant response rating ([6]; Preemergence, 62 g ai/ha): 5
- Plant response rating ([6]; Preemergence, 125 g ai/ha): 5
- Plant response rating ([6]; Preemergence, 250 g ai/ha): 5
- Plant response rating ([7]; Postemergence, 16 g ai/ha): 5
- Plant response rating ([7]; Postemergence, 31 g ai/ha): 10
- Plant response rating ([7]; Postemergence, 62 g ai/ha): 15
- Plant response rating ([7]; Postemergence, 125 g ai/ha): 20
- Plant response rating ([7]; Postemergence, 250 g ai/ha): 20
- Plant response rating ([7]; Preemergence, 16 g ai/ha): 5
- Plant response rating ([7]; Preemergence, 31 g ai/ha): 10
- Plant response rating ([7]; Preemergence, 62 g ai/ha): 5
- Plant response rating ([7]; Preemergence, 125 g ai/ha): 15
- Plant response rating ([7]; Preemergence, 250 g ai/ha): 5
- Plant response rating ([8]; Postemergence, 16 g ai/ha): 5
- Plant response rating ([8]; Postemergence, 31 g ai/ha): 10
- Plant response rating ([8]; Postemergence, 62 g ai/ha): 15
- Plant response rating ([8]; Postemergence, 125 g ai/ha): 15
- Plant response rating ([8]; Postemergence, 250 g ai/ha): 15
- Plant response rating ([8]; Preemergence, 16 g ai/ha): 0
- Plant response rating ([8]; Preemergence, 31 g ai/ha): 5
- Plant response rating ([8]; Preemergence, 62 g ai/ha): 5
- Plant response rating ([8]; Preemergence, 125 g ai/ha): 5
- Plant response rating ([8]; Preemergence, 250 g ai/ha): 10
- Plant response rating ([9]; Postemergence, 16 g ai/ha): 5
- Plant response rating ([9]; Postemergence, 31 g ai/ha): 5
- Plant response rating ([9]; Postemergence, 62 g ai/ha): 10
- Plant response rating ([9]; Postemergence, 125 g ai/ha): 15
- Plant response rating ([9]; Postemergence, 250 g ai/ha): 15
- Plant response rating ([9]; Preemergence, 16 g ai/ha): 0
- Plant response rating ([9]; Preemergence, 31 g ai/ha): 0
- Plant response rating ([9]; Preemergence, 62 g ai/ha): 0
- Plant response rating ([9]; Preemergence, 125 g ai/ha): 15
- Plant response rating ([9]; Preemergence, 250 g ai/ha): 25
- Plant response rating ([10]; Postemergence, 16 g ai/ha): 10
- Plant response rating ([10]; Postemergence, 31 g ai/ha): 10
- Plant response rating ([10]; Postemergence, 62 g ai/ha): 10
- Plant response rating ([10]; Postemergence, 125 g ai/ha): 20
- Plant response rating ([10]; Postemergence, 250 g ai/ha): 20
- Plant response rating ([10]; Preemergence, 16 g ai/ha): 0
- Plant response rating ([10]; Preemergence, 31 g ai/ha): 0
- Plant response rating ([10]; Preemergence, 62 g ai/ha): 0
- Plant response rating ([10]; Preemergence, 125 g ai/ha): 0
- Plant response rating ([10]; Preemergence, 250 g ai/ha): 0
- Plant response rating (kochia (Kochia scoparia); Postemergence, 16 g ai/ha): 60
- Plant response rating (kochia (Kochia scoparia); Postemergence, 31 g ai/ha): 60
- Plant response rating (kochia (Kochia scoparia); Postemergence, 62 g ai/ha): 65
- Plant response rating (kochia (Kochia scoparia); Postemergence, 125 g ai/ha): 85
- Plant response rating (kochia (Kochia scoparia); Postemergence, 250 g ai/ha): 90
- Plant response rating (kochia (Kochia scoparia); Preemergence, 16 g ai/ha): 35
- Plant response rating (kochia (Kochia scoparia); Preemergence, 31 g ai/ha): 65
- Plant response rating (kochia (Kochia scoparia); Preemergence, 62 g ai/ha): 95
- Plant response rating (kochia (Kochia scoparia); Preemergence, 125 g ai/ha): 70
- Plant response rating (kochia (Kochia scoparia); Preemergence, 250 g ai/ha): 100
